Results published in PMC5651918, “Evolving stability and pH-dependent activity of the high redox potential Botrytis aclada laccase for enzymatic fuel cells” (Scientific Reports, 2017).

Target: T1, Botrytis aclada laccase (BaL WT) (Botrytis aclada, UniProt H8ZRU2)
T1 construct: BaL cDNA, secreted recombinant from Pichia pastoris X-33 (pGAPZ A, pBaLac)
T1 sequence (H8ZRU2 20-580): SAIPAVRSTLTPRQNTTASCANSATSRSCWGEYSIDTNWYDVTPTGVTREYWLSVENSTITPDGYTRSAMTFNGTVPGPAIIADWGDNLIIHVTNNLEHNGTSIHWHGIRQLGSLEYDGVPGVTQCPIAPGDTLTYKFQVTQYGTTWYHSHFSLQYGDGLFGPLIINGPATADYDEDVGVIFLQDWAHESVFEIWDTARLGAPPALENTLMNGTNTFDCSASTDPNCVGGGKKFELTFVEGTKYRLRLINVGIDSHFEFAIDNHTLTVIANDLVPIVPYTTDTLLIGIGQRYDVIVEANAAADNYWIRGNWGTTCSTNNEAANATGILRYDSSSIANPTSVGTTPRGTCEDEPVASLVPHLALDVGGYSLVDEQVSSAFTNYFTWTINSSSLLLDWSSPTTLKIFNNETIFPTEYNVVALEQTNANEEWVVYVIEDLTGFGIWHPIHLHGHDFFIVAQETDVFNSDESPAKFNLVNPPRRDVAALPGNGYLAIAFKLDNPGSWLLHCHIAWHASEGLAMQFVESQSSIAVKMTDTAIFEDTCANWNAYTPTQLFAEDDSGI
Experiment: steady-state photometric kinetics, Michaelis-Menten fit
Assay type: biochemical
Conditions: pH 3.0, 4.5 and 6.0; apparent constants

Compound | KM
COc1cccc(OC)c1O [DMP, 2,6-dimethoxyphenol] | apparent steady-state kinetic constants were determined for the two substrates DMP and ABTS
CCn1c(=NN=c2sc3cc(S(=O)(=O)O)ccc3n2CC)sc2cc(S(=O)(=O)O)ccc21 [ABTS, 2,2′-azino-bis(3-ethylbenzothiazoline-6-sulfonic acid)] | apparent steady-state kinetic constants were determined for the two substrates DMP and ABTS
